Laboratory results reported in ChEMBL document CHEMBL3259765, “ProTides of N-(3-(5-(2'-deoxyuridine))prop-2-ynyl)octanamide as potential anti-tubercular and anti-viral agents” (Bioorg Med Chem, 2014).
Values after ≈ are worked out from the molar mass of the structure shown. Active and inactive are the calls of the source. No cut-off for these calls is given here.

What was measured:
[1] = system: Mycobacterium tuberculosis; test: Antibacterial activity against Mycobacterium tuberculosis H37Rv ATCC 27294 up to 2 weeks by HT-SPOTi assay; format: functional; details: H37Rv ATCC 27294, 336 h
Escherichia coli = test: Antibacterial activity against Escherichia coli DH5[alpha] ATCC 53868 after overnight incubation by HT-SPOTi assay; format: functional, organism-based
[2] = Cytotoxicity against HEL cells assessed as reduction in cell growth after 3 to 5 days by Coulter counting analysis; format: cell-based; details: human
Human alphaherpesvirus 3 [3] = test: Antiviral activity against thymidine kinase-positive Varicella zoster virus Oka infected in HEL cells assessed as reduction in viral plaque formation after 5 days; format: functional, organism-based; details: Human alphaherpesvirus 3, strain Oka vaccine, 120 h
Human alphaherpesvirus 2 = test: Antiviral activity against Herpes simplex virus 2 G infected in HEL cells assessed as reduction in virus-induced cytopathicity after 3 days; format: functional, organism-based; details: Human alphaherpesvirus 2, strain G, 72 h
Human alphaherpesvirus 3 [4] = test: Antiviral activity against thymidine kinase-deficient Varicella zoster virus 07-1 infected in HEL cells assessed as reduction in viral plaque formation after 5 days; format: functional, organism-based; details: Human alphaherpesvirus 3, 07-1, HEL, 120 h
[5] = Cytotoxicity against HEL cells assessed as morphological changes after 3 to 5 days […]; format: cell-based; details: human
Human alphaherpesvirus 1 [6] = test: Antiviral activity against thymidine kinase-positive Herpes simplex virus 1 KOS infected in HEL cells assessed as reduction in virus-induced cytopathicity after 3 days; format: functional, organism-based; details: Human alphaherpesvirus 1, KOS, 72 h
Vaccinia virus = test: Antiviral activity against Vaccinia virus infected in HEL cells assessed as reduction in virus-induced cytopathicity after 3 days; format: functional, organism-based; details: Orthopoxvirus vaccinia
Human alphaherpesvirus 1 [7] = test: Antiviral activity against thymidine kinase-deficient ACV-resistant Herpes simplex virus 1 B-2006 infected in HEL cells assessed as reduction in virus-induced cytopathicity after 3 days; format: functional, organism-based; details: Human alphaherpesvirus 1, B-2006, HEL, 72 h
Human betaherpesvirus 5 [8] = test: Antiviral activity against Human cytomegalovirus AD169 infected in HEL cells assessed as reduction in virus-induced cytopathicity after 7 days; format: functional, organism-based
Human betaherpesvirus 5 [9] = test: Antiviral activity against Human cytomegalovirus Davis infected in HEL cells assessed as reduction in virus-induced cytopathicity after 7 days; format: functional, organism-based

Compound	MIC [1] [µg/mL]	Activity (Escherichia coli)	CC50 [2] [µM]	EC50 (Human alphaherpesvirus 3 [3]) [µM]	EC50 (Human alphaherpesvirus 2) [µM]	EC50 (Human alphaherpesvirus 3 [4]) [µM]	MCC [5] [µM]	EC50 (Human alphaherpesvirus 1 [6]) [µM]	Activity (Vaccinia virus)	EC50 (Human alphaherpesvirus 1 [7]) [µM]	Activity (Human betaherpesvirus 5 [8])	Activity (Human betaherpesvirus 5 [9])
CCCCCCCC(=O)NCC#Cc1cn([C@H]2C[C@H](O)[C@@H](COP(=O)(NCC(=O)OCc3ccccc3)Oc3ccccc3)O2)c(=O)[nH]c1=O (stereo not given in full)	> 250	inactive										
CCCCCCCC(=O)NCC#Cc1cn([C@H]2C[C@H](O)[C@@H](COP(=O)(N[C@H](C(=O)OCc3ccccc3)C(C)C)Oc3ccccc3)O2)c(=O)[nH]c1=O (stereo not given in full)	31.2 (≈ 41.5 µM)	inactive										
CCCCCCCC(=O)NCC#Cc1cn([C@H]2C[C@H](O)[C@@H](COP(=O)(N[C@@H](C)C(=O)OC)Oc3ccccc3)O2)c(=O)[nH]c1=O (stereo not given in full)	> 250	inactive										
Nc1nc2c(ncn2COCCO)c(=O)[nH]1 [ACYCLOVIR]			440	2.6	0.1	140	> 440					
CCCCCCCC(=O)NCC#Cc1cn([C@H]2C[C@H](O)[C@@H](COP(=O)(N[C@@H](C)C(=O)OCC)Oc3cccc4ccccc34)O2)c(=O)[nH]c1=O (stereo not given in full)	125 (≈ 175 µM)	inactive										
CCCCCCCC(=O)NCC#Cc1cn([C@H]2C[C@H](O)[C@@H](COP(=O)(N[C@@H](C)C(=O)OCC(C)C)Oc3cccc4ccccc34)O2)c(=O)[nH]c1=O (stereo not given in full)	62.5 (≈ 84.4 µM)	inactive	15	20	> 100	> 20	> 100	> 100	inactive	> 100	inactive	inactive
CCCCCCCC(=O)NCC#Cc1cn([C@H]2C[C@H](O)[C@@H](COP(=O)(N[C@@H](C)C(=O)OCC)Oc3ccccc3)O2)c(=O)[nH]c1=O (stereo not given in full)	250 (≈ 377 µM)	inactive										
CCCCCCCC(=O)NCC#Cc1cn([C@H]2C[C@H](O)[C@@H](COP(=O)(N[C@@H](C)C(=O)OCCC)Oc3ccccc3)O2)c(=O)[nH]c1=O (stereo not given in full)	125 (≈ 185 µM)	inactive										
CCCCCCCC(=O)NCC#Cc1cn([C@H]2C[C@H](O)[C@@H](COP(=O)(N[C@@H](C)C(=O)OCc3ccccc3)Oc3cccc4ccccc34)O2)c(=O)[nH]c1=O (stereo not given in full)	250 (≈ 323 µM)	inactive	39	8.6	> 100	> 20	> 100	> 100	inactive	> 100	inactive	inactive
CCCCCCCC(=O)NCC#Cc1cn([C@H]2C[C@H](O)[C@@H](COP(=O)(NC(C)(C)C(=O)OCc3ccccc3)Oc3ccccc3)O2)c(=O)[nH]c1=O (stereo not given in full)	> 125	inactive										
CCCCCCCC(=O)NCC#Cc1cn([C@H]2C[C@H](O)[C@@H](COP(=O)(N[C@@H](C)C(=O)OCc3ccccc3)Oc3ccccc3)O2)c(=O)[nH]c1=O (stereo not given in full)	125 (≈ 172 µM)	inactive	48	2	4	> 20	> 100	2	inactive	> 100	inactive	inactive
CCCCCCCC(=O)NCC#Cc1cn([C@H]2C[C@H](O)[C@@H](COP(=O)(N[C@H](C)C(=O)OCc3ccccc3)Oc3ccccc3)O2)c(=O)[nH]c1=O (stereo not given in full)	125 (≈ 172 µM)	inactive										
CCCCCCCC(=O)NCC#Cc1cn([C@H]2C[C@H](O)[C@@H](COP(=O)(N[C@@H](C)C(=O)OC)Oc3cccc4ccccc34)O2)c(=O)[nH]c1=O (stereo not given in full)	62.5 (≈ 89.5 µM)	inactive	64	37	> 100	46	> 100	> 100	inactive	> 100	inactive	inactive
CCCCCCCC(=O)NCC#Cc1cn([C@H]2C[C@H](O)[C@@H](CO)O2)c(=O)[nH]c1=O	> 250	inactive	> 100	> 100	> 100	> 100		> 100	inactive	> 100	inactive	inactive
